Results taken from patent US20260098046A1, “RIFABUTIN ANALOGS FOR THE TREATMENT OF DISEASE” (BIOVERSYS AG, priority 2022, published 2026).
In brackets after ≈: the same amount, converted by molar mass. Read-outs that look alike come from different tables or passages of the source.

Legend:
Format in all cases: cell-based
[1] = tested on: M. abscessus (ATCC 19977); assay: MIC by broth microdilution (CLSI) against M. abscessus; settings: Mycobacteroides abscessus
Protocol: (§1) MIC values were determined by broth microdilution method according to the CLSI guideline. Unless otherwise mentioned, MIC against A. baumannii was performed in RPMI medium supplemented with 10% FCS. MIC against M. abscessus was performed in Middlebrook 7H9 broth supplemented with Middlebrook ADC growth supplement (10%). All other MIC were performed in standard cation adjusted Mueller Hinton broth, supplemented with Middlebrook ADC growth supplement (5%) for the slow growing mycobacteria (M. xenopi, M. kansasii and M. avium).
(§2) The following procedure applies to all species tested, except for M. xenopi. From a fresh culture plate (from overnight to several days depending on the bacteria), cells were resuspended in 0.9% (w/v) saline solution and bacterial inoculum was prepared in the respective testing medium with 5×10^5 CFU/mL. For M. xenopi, the inoculum was prepared from a fresh liquid culture (7H9+ADC). The appropriate volumes of a 10 mg/mL compound solution were directly dispensed in the 96-well assay plate using a digital dispenser to create two-fold dilution series from 32 to 0.002 μg/mL final concentration for A. baumannii and S. aureus; from 16 to 0.016 μg/mL for M. abscessus and M. avium; and from 1 to 6×10^−5 μg/mL for M. kansasii and M. xenopi. 100 μL of bacterial suspension was finally added to the compounds. Plates were covered and incubated without shaking at 35° C. for 20 hours for A. baumanii and S. aureus; at 30° C. for 4 days for M. abscessus; and at 37° C. for 7 days (at least) for M. kansasii (covered with aluminum foil to avoid light exposure), M. avium and M. xenopi. Every experiment contained an antibiotic as quality control. MIC was determined visually as the lowest concentration of a compound that prevents visible growth of the bacteria.
(§3) The in vitro activity of compounds described herein was determined against S. aureus (UAMS-1625 strain), A. baumannii (HUMC1 strain), M. abscessus (ATCC 19977), M. kansasii (ATCC12478), M. avium (ATCC25291), and M. xenopi (ATCC19250).

[2] = tested on: A. baumannii (HUMC1 strain); assay: MIC by broth microdilution (CLSI) against A. baumannii; settings: Acinetobacter baumannii, RPMI medium supplemented with 10% FCS, 35° C. for 20 hours, read-out: In vitro activity (MIC) A. baumannii
Protocol: as §1, §2, §3

[3] = tested on: S. aureus (UAMS-1625 strain); assay: MIC by broth microdilution (CLSI) against S. aureus; settings: Staphylococcus aureus, 20 h, read-out: In vitro activity (MIC) S. aureus
Protocol: as §1, §2, §3

[4] = ATCC19977, 96 h, ATCC 19977, Middlebrook 7H9 broth + ADC (10%), 30° C. for 4 days, read-out: In vitro activity (MIC) M. abscessus

Q: For `CO[C@H]1/C=C/O[C@@]2(C)Oc3c(C)c(O)c4c(c3C2=O)C2=NC3(CCN(CC(C)C)CC3)NC2=C(NC(=O)/C(C)=C\C=C\[C@H](C)[C@H](O)[C@@H](C)[C@@H](O)[C@@H](C)[C@H](OC(=O)Cn2cc(CN3CCS(=O)(=O)CC3)nn2)[C@@H]1C)C4=O` [Compound 14], which MIC [1, 4] is on record?
A: 1 µg/mL

Q: What about the MIC [2] of the same molecule?
A: ≤ 2 ng/mL

Q: And the MIC [3]?
A: 0.06 µg/mL (≈ 0.0565 µM)

Q: Which MIC [1, 4] does the source give for `CO[C@H]1/C=C/O[C@@]2(C)Oc3c(C)c(O)c4c(c3C2=O)C2=NC3(CCN(CC(C)C)CC3)NC2=C(NC(=O)/C(C)=C\C=C\[C@H](C)[C@H](O)[C@@H](C)[C@@H](O)[C@@H](C)[C@H](OC(=O)Cn2cc(CNS(C)(=O)=O)nn2)[C@@H]1C)C4=O` [Compound 15] here?
A: 1 µg/mL

Q: What about the MIC [2] of the same molecule?
A: ≤ 2 ng/mL

Q: And the MIC [3]?
A: 0.125 µg/mL (≈ 0.122 µM)

Q: What does the source list for `CO[C@H]1/C=C/O[C@@]2(C)Oc3c(C)c(O)c4c(c3C2=O)C2=NC3(CCN(CC(C)C)CC3)NC2=C(NC(=O)/C(C)=C\C=C\[C@H](C)[C@H](O)[C@@H](C)[C@@H](O)[C@@H](C)[C@H](OC(=O)Cn2cc(CNS(=O)(=O)c3ccccc3)nn2)[C@@H]1C)C4=O` [Compound 16]?
A: MIC [1, 4]: 0.5 µg/mL; MIC [2]: 8 ng/mL (≈ 0.00739 µM); MIC [3]: 0.125 µg/mL (≈ 0.115 µM)

Q: Which MIC [1, 4] does the source give for `CO[C@H]1/C=C/O[C@@]2(C)Oc3c(C)c(O)c4c(c3C2=O)C2=NC3(CCN(CC(C)C)CC3)NC2=C(NC(=O)/C(C)=C\C=C\[C@H](C)[C@H](O)[C@@H](C)[C@@H](O)[C@@H](C)[C@H](OC(=O)Cn2cc(CNS(=O)(=O)c3ccc(C)cc3)nn2)[C@@H]1C)C4=O` [Compound 17] here?
A: 0.5 µg/mL

Q: And the MIC [2]?
A: 8 ng/mL (≈ 0.00729 µM)

Q: What about the MIC [3] of the same molecule?
A: 0.25 µg/mL (≈ 0.228 µM)

Q: `CO[C@H]1/C=C/O[C@@]2(C)Oc3c(C)c(O)c4c(c3C2=O)C2=NC3(CCN(CC(C)C)CC3)NC2=C(NC(=O)/C(C)=C\C=C\[C@H](C)[C@H](O)[C@@H](C)[C@@H](O)[C@@H](C)[C@H](OC(=O)Cn2cc(CNS(=O)(=O)c3ccc(Cl)cc3)nn2)[C@@H]1C)C4=O` [Compound 18] was tested. Which MIC [1, 4] did it give?
A: 0.5 µg/mL

Q: And the MIC [2]?
A: 60 ng/mL (≈ 0.0537 µM)

Q: What about the MIC [3] of the same molecule?
A: 0.5 µg/mL (≈ 0.447 µM)

Q: What does the source list for `CCCc1cn(CC(=O)O[C@H]2[C@H](C)[C@H](O)[C@H](C)[C@@H](O)[C@@H](C)/C=C/C=C(/C)C(=O)NC3=C4NC5(CCN(CC(C)C)CC5)N=C4c4c(c(O)c(C)c5c4C(=O)[C@@](C)(O/C=C/[C@H](OC)[C@H]2C)O5)C3=O)nn1` [Compound 24]?
A: MIC [1, 4]: 1 µg/mL; MIC [2]: 4 ng/mL (≈ 0.00418 µM); MIC [3]: 0.03 µg/mL (≈ 0.0314 µM)

Q: With `CO[C@H]1/C=C/O[C@@]2(C)Oc3c(C)c(O)c4c(c3C2=O)C2=NC3(CCN(CC(C)C)CC3)NC2=C(NC(=O)/C(C)=C\C=C\[C@H](C)[C@H](O)[C@@H](C)[C@@H](O)[C@@H](C)[C@H](OC(=O)Cn2cc(C3CC3)nn2)[C@@H]1C)C4=O` [Compound 25] as the molecule, how does the MIC [1, 4] read?
A: 4 µg/mL

Q: And the MIC [2]?
A: ≤ 2 ng/mL

Q: And the MIC [3]?
A: 0.03 µg/mL (≈ 0.0314 µM)

Q: `CO[C@H]1/C=C/O[C@@]2(C)Oc3c(C)c(O)c4c(c3C2=O)C2=NC3(CCN(CC(C)C)CC3)NC2=C(NC(=O)/C(C)=C\C=C\[C@H](C)[C@H](O)[C@@H](C)[C@@H](O)[C@@H](C)[C@H](OC(=O)Cn2cc(C(C)(C)C)nn2)[C@@H]1C)C4=O` [Compound 27] was tested. Which MIC [1, 4] did it give?
A: 2 µg/mL

Q: What about the MIC [2] of the same molecule?
A: 4 ng/mL (≈ 0.00412 µM)

Q: What about the MIC [3] of the same molecule?
A: 0.06 µg/mL (≈ 0.0618 µM)

Q: How did the MIC [1, 4] turn out when `CO[C@H]1/C=C/O[C@@]2(C)Oc3c(C)c(O)c4c(c3C2=O)C2=NC3(CCN(CC(C)C)CC3)NC2=C(NC(=O)/C(C)=C\C=C\[C@H](C)[C@H](O)[C@@H](C)[C@@H](O)[C@@H](C)[C@H](OC(=O)Cn2cc(CC3CCCCC3)nn2)[C@@H]1C)C4=O` [Compound 28] was run?
A: 0.5 µg/mL

Q: What about the MIC [2] of the same molecule?
A: 30 ng/mL (≈ 0.0297 µM)

Q: What about the MIC [3] of the same molecule?
A: 0.5 µg/mL (≈ 0.495 µM)

Q: For `CO[C@H]1/C=C/O[C@@]2(C)Oc3c(C)c(O)c4c(O)c(c(/C=N/N5CCN(C)CC5)c(O)c4c3C2=O)NC(=O)/C(C)=C\C=C\[C@H](C)[C@H](O)[C@@H](C)[C@@H](O)[C@@H](C)[C@H](OC(C)=O)[C@@H]1C` [Rifampicin, reference compound], which MIC ([1]; ATCC19977, tested M. abscessus strains, read-out: MIC value on M. abscessus) is on record?
A: > 32 µg/mL
